Here are results for 12 compounds from patent US8269026B2, “Lupane derivatives useful for treating HIV” (priority 2008, dated 2012).

The subject of the assay is HIV-1 (HIVIIIB) replication in MT2 cell line. Kind of assay: HIV-1 replication in MT2 cell line with and without 30% human serum (viral RT activity in supernatant). The assay is classed as cell-based. The settings on record: Human immunodeficiency virus 1, MT2 cells, with 30% human serum, average IC50 if tested more than once, read-out: MT2 (HIVIIIB) with HS 30% IC50 range. The essentials:
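MT2 cells infected with HIV-1 IIIB at MOI 0.5 for 3 h, washed, seeded at 0.5×10^6/ml in RPMI/10% FBS with serially diluted compound, with or without 30% human serum; medium and compound refreshed on day 3. RT activity in supernatant at day 5; IC50 and IC90 derived.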
By IC50 is commonly meant the concentration that inhibits the measured activity by half. On to `CC(C)C1=C2C3CCC4[C@@]5(C)CC[C@H](OC(=O)CC(C)(C)C(=O)O)C(C)(C)C5CC[C@@]4(C)[C@]3(C)CC[C@@]2(NC(=O)O[C@@H]2CCN(C)C2)CC1=O` (stereo partly drawn) [20-13, 3β-O-(3′,3′-Dimethylsuccinyl)-17β-((R)-1-methylpyrrolidine-3-oxycarbonylamino)-21-oxolup-18-ene], for which the concentration for half-maximal inhibition (IC50) is under 199 nM.

For the compound `CC(C)C1=C2C3CCC4[C@@]5(C)CC[C@H](OC(=O)CC(C)(C)C(=O)O)C(C)(C)C5CC[C@@]4(C)[C@]3(C)CC[C@@]2(NC(=O)OC2CCSCC2)CC1=O` (stereo partly drawn) [20-14, 3β-O-(3′,3′-Dimethylsuccinyl)-17β-(tetrahydro-thiopyran-4-oxycarbonylamino)-21-oxolup-18-ene], the concentration for half-maximal inhibition (IC50) was under 199 nM.

`CC(C)C1=C2C3CCC4[C@@]5(C)CC[C@H](OC(=O)CC(C)(C)C(=O)O)C(C)(C)C5CC[C@@]4(C)[C@]3(C)CC[C@@]2(NC(=O)OC2CCS(=O)(=O)CC2)CC1=O` (stereo partly drawn) [20-15, 3β-O-(3′,3′-Dimethylsuccinyl)-17β-(1,1-dioxo-tetrahydro-thiopyran-4-oxycarbonylamino)-21-oxolup-18-ene]: the IC50 is under 199 nM.

In the case of `CC(C)C1=C2C3CCC4[C@@]5(C)CC[C@H](OC(=O)CC(C)(C)C(=O)O)C(C)(C)C5CC[C@@]4(C)[C@]3(C)CC[C@@]2(NC(=O)OC2CCNCC2)CC1=O` (stereo partly drawn) [20-16, 3β-O-(3′,3′-Dimethylsuccinyl)-17β-(piperidine-4-oxycarbonylamino)-21-oxolup-18-ene], the concentration for half-maximal inhibition (IC50) is under 199 nM.

Consider `CC(C)C1=C2C3CCC4[C@@]5(C)CC[C@H](OC(=O)CC(C)(C)C(=O)O)C(C)(C)C5CC[C@@]4(C)[C@]3(C)CC[C@@]2(NC(=O)OC2CCN(C)CC2)CC1=O` (stereo partly drawn) [20-17, 3β-O-(3′,3′-Dimethylsuccinyl)-17β-(1-methylpiperidine-4-oxycarbonylamino)-21-oxolup-18-ene], for which the IC50 is under 199 nM.

`CC(C)C1=C2C3CCC4[C@@]5(C)CC[C@H](OC(=O)CC(C)(C)C(=O)O)C(C)(C)C5CC[C@@]4(C)[C@]3(C)CC[C@@]2(NC(=O)OCC2CCN(C)CC2)CC1=O` (stereo partly drawn) [20-18, 3β-O-(3′,3′-Dimethylsuccinyl)-17β-(1-methylpiperidine-4-methoxycarbonylamino)-21-oxolup-18-ene]: the IC50 is under 199 nM.

For `CC(C)C1=C2C3CCC4[C@@]5(C)CC[C@H](OC(=O)CC(C)(C)C(=O)O)C(C)(C)C5CC[C@@]4(C)[C@]3(C)CC[C@@]2(NC(=O)OCC2CCCN(C)C2)CC1=O` (stereo partly drawn) [20-19, 3β-O-(3′,3′-Dimethylsuccinyl)-17β-(1-methylpiperidine-3-methoxycarbonylamino)-21-oxolup-18-ene], the IC50 was under 199 nM.

As for `CC(C)C1=C2C3CCC4[C@@]5(C)CC[C@H](OC(=O)CC(C)(C)C(=O)O)C(C)(C)C5CC[C@@]4(C)[C@]3(C)CC[C@@]2(NC(=O)OC[C@@H]2CCCN2C)CC1=O` (stereo partly drawn) [20-20, 3β-O-(3′,3′-Dimethylsuccinyl)-17β-((S)1-methylpyrrolidine-2-methoxycarbonylamino)-21-oxolup-18-ene], the IC50 is under 199 nM.

`CC(C)C1=C2C3CCC4[C@@]5(C)CC[C@H](OC(=O)CC(C)(C)C(=O)O)C(C)(C)C5CC[C@@]4(C)[C@]3(C)CC[C@@]2(NC(=O)OCC2CCN(C)C2)CC1=O` (stereo partly drawn) [20-21, 3β-O-(3′,3′-Dimethylsuccinyl)-17β-(1-methylpyrrolidine-3-methoxycarbonylamino)-21-oxolup-18-ene]: the half-inhibitory concentration (IC50) is under 199 nM.

For the compound `CC(C)C1=C2C3CCC4[C@@]5(C)CC[C@H](OC(=O)CC(C)(C)C(=O)O)C(C)(C)C5CC[C@@]4(C)[C@]3(C)CC[C@@]2(NC(=O)OCCC2CC2)CC1=O` (stereo partly drawn) [20-22, 3β-O-(3′,3′-Dimethylsuccinyl)-17β-(2-cyclopropyl-1-ethoxycarbonylamino)-21-oxolup-18-ene], the half-maximal inhibitory concentration (IC50) is under 199 nM.

As for `CC(C)C1=C2C3CCC4[C@@]5(C)CC[C@H](OC(=O)CC(C)(C)C(=O)O)C(C)(C)C5CC[C@@]4(C)[C@]3(C)CC[C@@]2(NC(=O)OCCN2CCCC2)CC1=O` (stereo partly drawn) [20-23, 3β-O-(3′,3′-Dimethylsuccinyl)-17β-(2-pyrrolidin-1-ethoxycarbonylamino)-21-oxolup-18-ene], the IC50 was under 199 nM.

As for `CC(C)C1=C2C3CCC4[C@@]5(C)CC[C@H](OC(=O)CC(C)(C)C(=O)O)C(C)(C)C5CC[C@@]4(C)[C@]3(C)CC[C@@]2(NC(=O)OCCN2CCCC2=O)CC1=O` (stereo partly drawn) [20-24, 3β-O-(3′,3′-Dimethylsuccinyl)-17β-(2-(2-oxo-pyrrolidin)-1-ethoxycarbonylamino)-21-oxolup-18-ene], the half-maximal inhibitory concentration (IC50) was under 199 nM.
